Columns and labels:
Pol II = assay: 4sU-FP-seq measurement of Pol II transcription elongation rate in HEK293T cells; format: cell-based, human; conditions: 20 μM pretreatment 5 hr, HMM analysis, 982 genes
Experimental: FIG. 4. Small molecule disruption of SEC slows Pol II elongation rates. (A) Workflow of 4sU-FP-seq based measurement of the transcription elongation rate of RNA Pol II. HEK293T cells were pretreated with vehicle or 20 μM SEC inhibitors for 5 hr before addition of the CDK9 inhibitor flavopiridol for 1 hr to arrest Pol II at the promoter-proximal pause site. Inhibitors are washed out with PBS before allowing transcription to proceed in the presence of with fresh medium containing 500 μM 4-Thiouridine (4sU) for 15 min. The 4sU-labeled RNA is then extracted and fragmented before purification, and followed with RNA-seq. (B) Genome browser tracks of 4sU-FP-seq for vehicle and SEC inhibitor-treated cells at the ACTN2 and MTR loci. […] (C) Heatmap analysis of 4sU-FP-seq in vehicle and the indicated SEC inhibitors in HEK293T cells. All genes longer than 50 kb (N=5,568) were plotted and ordered using the total 4sU-FP-seq signals in the vehicle-treated cells. (D) Metaplot of strand-specific 4sU-FP-seq signals in vehicle and SEC inhibitors-treated cells. […] Raw changes in 4sU-FP-seq read counts in non-overlapping 50 bp windows used to infer elongation rates for the MTR gene. […] (F-G) Histograms (F) and boxplots (G) comparing the transcription elongation rates for 982 genes in HEK293T cells for which high confidence elongation rates could be determined. […]

[1] = system: heat shock responsive genes in Drosophila S2 cells; assay: Heat shock induction in Drosophila S2 cells; format: cell-based; conditions: 20 μM
Experimental: FIG. 5. SEC inhibitors block transcription elongation in SEC-dependent rapid response models. (A-B) Genome browser tracks of Pol II ChIP-seq at the FOS, HSPD1 and HSPE1 genes after 1 hr heat shock of HCT-116 cells treated with vehicle (DMSO) or the indicated SEC inhibitors. HCT-116 cells were pretreated with inhibitors for 5 hr at 37° C. before exchanging medium with conditioned 42° C. medium. Dark and light colors indicate the 37 and 42° C. conditions, respectively. (C) Genome-wide identification of heat shock-induced genes with fold change of reads per million in gene bodies and pausing index. Red dots are the 136 heat shock-induced genes according to Pol II signals (fold change of reads per million in gene bodies >1.5 and pausing index decreased >1.5-fold in the DMSO-treated condition). […] Box plot analysis depicts the log2 fold changes of reads per million in gene bodies (E) (y axis) after heat shock with pretreatment of vehicle or SEC inhibitors. […] S2 cells were heat shocked at 37° C. with and without 20 μM SEC inhibitors for 6 hr (left panel). The statistical analysis was performed with the Wilcoxon test.
Heat Shock Induction. Heat shock of mammalian cells was performed using ˜70-80% confluent HCT-116 cells by adding pre-heated (42° C.) conditioned media collected from identically growing cells (Mahat et al., 2016b). The heat shock cells were incubated at 42° C. for 1 hour. […]

## COc1cccc(C(=O)CC(=O)C(=O)Nc2cc(Cl)ccc2C)c1 [KL-1, N-(5-chloro-2-methylphenyl)-4-oxo-4-(3-methoxyphenyl)-2-oxobutanamide]
Pol II
  elongation rate of Pol II: decreased the elongation rate of Pol II
[1]
  heat shock induction of the 215 heat shock responsive genes: attenuated heat shock induction

— US11453640B2, “Small molecules for disrupting the super elongation complex and inhibiting transcription elongation for cancer therapy” (NORTHWESTERN UNIVERSITY, priority 2018, dated 2022)
